In ChEMBL document CHEMBL1124016, “Antihypertensive activity in a series of 1-piperazino-3-phenylindans with potent 5-HT2-antagonistic activity” (J Med Chem, 1988):

How the values were obtained:
[1] = species on record: Mus musculus; test: Inhibition of methyl phenidate induced stereotyped gnawing in mice; type: functional
[2] = system: Rattus norvegicus; test: Inhibition of phenylephrine induced pressor response in pithed rats (following i.v. administration of […]); type: functional; conditions: route intravenous
[3] = system: Rattus norvegicus; test: Percent reduction of blood pressure in spontaneously hypertensive rat after 10 min at intraperitoneal administration of 5 mg/kg; type: functional
[4] = biological target: T1, Adrenergic receptor alpha-1 (Rattus norvegicus, UniProt P15823+P23944+P43140); test: Inhibition of [3H]prazosin binding to alpha-1 adrenergic receptor from rat cortical membranes; type: cell membranes, Membrane
T1 sequence (P15823 whole entry): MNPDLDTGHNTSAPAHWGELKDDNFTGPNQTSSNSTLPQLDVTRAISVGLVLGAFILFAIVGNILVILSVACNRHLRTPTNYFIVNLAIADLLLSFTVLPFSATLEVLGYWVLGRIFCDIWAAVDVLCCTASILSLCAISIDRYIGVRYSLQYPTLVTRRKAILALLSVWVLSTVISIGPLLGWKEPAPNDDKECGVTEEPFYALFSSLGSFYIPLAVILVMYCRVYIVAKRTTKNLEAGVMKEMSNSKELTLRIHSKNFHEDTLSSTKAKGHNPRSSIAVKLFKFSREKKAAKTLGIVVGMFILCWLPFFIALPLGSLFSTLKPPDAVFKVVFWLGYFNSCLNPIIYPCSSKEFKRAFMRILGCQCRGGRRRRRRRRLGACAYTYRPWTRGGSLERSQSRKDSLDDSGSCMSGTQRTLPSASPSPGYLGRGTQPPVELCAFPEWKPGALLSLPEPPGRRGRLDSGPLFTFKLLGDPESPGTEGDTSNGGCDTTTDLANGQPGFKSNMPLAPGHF
T1 sequence (P23944 whole entry): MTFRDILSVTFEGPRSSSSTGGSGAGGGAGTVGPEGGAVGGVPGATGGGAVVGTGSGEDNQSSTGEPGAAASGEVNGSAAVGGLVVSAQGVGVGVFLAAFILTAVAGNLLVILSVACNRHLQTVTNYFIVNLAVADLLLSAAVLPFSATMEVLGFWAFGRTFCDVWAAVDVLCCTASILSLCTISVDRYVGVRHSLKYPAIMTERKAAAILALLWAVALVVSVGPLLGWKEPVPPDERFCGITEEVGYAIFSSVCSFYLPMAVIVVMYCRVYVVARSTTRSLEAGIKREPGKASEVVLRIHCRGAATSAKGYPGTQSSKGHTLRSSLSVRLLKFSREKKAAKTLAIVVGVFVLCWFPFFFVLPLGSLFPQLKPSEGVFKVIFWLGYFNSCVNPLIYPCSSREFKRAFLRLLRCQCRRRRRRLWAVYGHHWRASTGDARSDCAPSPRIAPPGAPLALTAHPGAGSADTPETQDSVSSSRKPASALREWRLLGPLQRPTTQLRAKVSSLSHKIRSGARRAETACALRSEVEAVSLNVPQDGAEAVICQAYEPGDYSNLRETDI
T1 sequence (P43140 whole entry): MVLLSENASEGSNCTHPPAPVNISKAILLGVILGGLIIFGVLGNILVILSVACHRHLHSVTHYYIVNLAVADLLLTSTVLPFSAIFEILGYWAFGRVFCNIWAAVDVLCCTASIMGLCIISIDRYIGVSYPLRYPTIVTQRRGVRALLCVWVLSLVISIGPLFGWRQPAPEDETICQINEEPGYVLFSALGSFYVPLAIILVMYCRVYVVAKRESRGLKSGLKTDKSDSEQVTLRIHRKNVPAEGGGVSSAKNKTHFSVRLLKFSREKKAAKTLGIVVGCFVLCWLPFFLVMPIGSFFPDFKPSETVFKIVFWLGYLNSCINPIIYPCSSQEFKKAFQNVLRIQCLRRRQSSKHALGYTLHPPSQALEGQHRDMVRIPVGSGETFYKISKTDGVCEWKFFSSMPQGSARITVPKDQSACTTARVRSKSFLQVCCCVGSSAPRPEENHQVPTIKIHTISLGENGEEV

[5] = system: Rattus norvegicus; test: Inhibition of 5-HT induced pressor response in pithed rats, after intravenous administration of 0.02 mg/kg; type: functional
[6] = biological target: Serotonin 2 (5-HT2) receptor (Rattus norvegicus, UniProt P30994+P08909+P14842); test: Inhibition of [3H]spiperone binding to 5-hydroxytryptamine 2 receptor from rat cortical membranes; type: cell membranes, Membrane
[7] = species on record: Rattus norvegicus; test: Inhibition of L-5-HTP (L-5-hydroxytryptophan) induced head twitches in rat; type: functional
[8] = system: Rattus norvegicus; test: Percent reduction of systolic arterial blood pressure(SAP) in spontaneously hypertensive rat after 10 min at intraperitoneal administration of 5 mg/kg; type: functional
[9] = system: Rattus norvegicus; test: Percent reduction of diastolic arterial blood pressure(DAP) in spontaneously hypertensive rat after 10 min at intraperitoneal administration of 5 mg/kg; type: functional
[10] = biological target: D(2) dopamine receptor (Rattus norvegicus, UniProt P61169); test: Inhibition of [3H]spiperone binding to Dopamine receptor D2 from rat striatal membranes; type: cell membranes, Membrane
Chain of D(2) dopamine receptor (P61169 whole entry): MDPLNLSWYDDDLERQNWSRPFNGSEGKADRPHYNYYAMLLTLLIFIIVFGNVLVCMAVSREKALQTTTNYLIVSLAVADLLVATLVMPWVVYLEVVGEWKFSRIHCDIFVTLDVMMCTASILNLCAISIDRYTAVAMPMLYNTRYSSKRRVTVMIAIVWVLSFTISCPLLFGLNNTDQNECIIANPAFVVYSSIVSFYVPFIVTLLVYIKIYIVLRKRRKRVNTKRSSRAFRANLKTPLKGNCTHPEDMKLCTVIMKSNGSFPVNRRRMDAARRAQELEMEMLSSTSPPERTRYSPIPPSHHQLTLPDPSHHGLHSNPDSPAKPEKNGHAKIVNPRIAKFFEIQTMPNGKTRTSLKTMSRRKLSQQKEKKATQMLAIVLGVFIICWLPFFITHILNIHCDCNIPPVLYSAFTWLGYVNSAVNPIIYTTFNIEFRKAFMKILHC

[11] = species on record: Rattus norvegicus; test: Ratio of phenylephrine ED50/ 5-HT ED50; type: functional
[12] = system: Rattus norvegicus; test: Inhibition of 5-HT induced pressor response in pithed rats, after intravenous administration; type: functional
[13] = system: Rattus norvegicus; test: Inhibition of 5-HT induced pressor response in pithed rats, after intravenous administration, activity is expressed as ED50; type: functional
[14] = Rattus norvegicus, read-out: ED50

SMILES | ED50 [1] [µmol/kg] | Change [2] [%] | Reduction [3] [%] | IC50 [4] [nM] | Change [5] [%] | IC50 [6] [nM] | ED50 [7, 14] [µmol/kg] | Reduction [8] [%] | Reduction [9] [%] | IC50 [10] [nM] | ED50 [7] [µmol/kg] | Ratio [11] | ED50 [12] [µmol/kg] | ED50 [13] [µmol/kg] | Increase [8] [%] | Increase [9] [%]
CN1CCN(C2CC(c3ccc(F)cc3)c3ccc(F)cc32)CC1 (stereo not drawn) | 11 | -19 | -15 | 22 | -85 | 7.7 | 0.079 | – | – | – | – | – | – | – | – | –
Cl.Cl.O=C1OCCN1CCN1CCN(C2CC(c3ccc(F)cc3)c3ccccc32)CC1 (stereo not drawn) | > 83 | – | – | – | – | 130 | – | -15 | -19 | – | – | – | – | – | – | –
O.OC1=NCCN1CCN1CCN(C2CC(c3ccc(O)cc3)c3ccccc32)CC1 (stereo not drawn) | > 98 | 22 | – | 560 | -5 | 310 | – | -6 | -6 | 4000 | > 49 | – | – | – | – | –
O=C(O)/C=C\C(=O)O.O=C(O)/C=C\C(=O)O.O=C1NCCN1CCN1CCN([C@H]2C[C@H](c3ccccc3F)c3ccccc32)CC1 | > 62 | 3 | -8 | – | 0 | – | > 31 | – | – | – | – | – | – | – | – | –
Fc1ccc([C@@H]2C[C@@H](N3CCN(CCN4CCN=C4S)CC3)c3cc(F)ccc32)cc1.O=C(O)/C=C\C(=O)O.O=C(O)/C=C\C(=O)O | – | – | -32 | 13 | – | 2.2 | – | – | – | 29 | – | – | – | – | – | –
Cl.Cl.O=c1[nH]c2ccccc2c(=O)n1CCN1CCN(C2CC(c3ccc(F)cc3)c3ccccc32)CC1 (stereo not drawn) | > 70 | -42 | -22 | 5.5 | -35 | 3.4 | 4.4 | – | – | 60 | – | 7.7 | 0.1 | 0.77 | – | –
COc1ccc(C2CC(N3CCN(CCN4CCNC4=O)CC3)c3ccccc32)cc1 (stereo not drawn) | > 95 | 69 | 3 | 1400 | -19 | 250 | > 48 | – | – | 15000 | – | – | – | – | – | –
COc1cc2nc(N3CCN(C(=O)c4ccco4)CC3)nc(N)c2cc1OC [PRAZOSIN] | > 95 | -100 | -32 | – | 0 | – | 0.45 | – | – | – | – | – | > 12 | 0.0095 | – | –
O=C(c1ccc(F)cc1)C1CCN(CCn2c(=O)[nH]c3ccccc3c2=O)CC1 [KETANSERIN] | > 101 | -14 | -32 | 15 | -62 | – | 0.79 | – | – | 1800 | – | – | 0.024 | 3.2 | – | –
Cl.Cl.Oc1nc2ccccc2n1CCN1CCN(C2CC(c3ccc(F)cc3)c3ccc(F)cc32)CC1 (stereo not drawn) | > 72 | – | -15 | 160 | – | 9.4 | – | – | – | 25 | – | – | – | – | – | –
O=C1NCCN1CCN1CCN(C2CCc3ccccc32)CC1 (stereo not drawn) | > 127 | – | – | – | – | 5100 | – | – | – | 62000 | > 8 | – | – | – | 5 | 6
O=C(O)/C=C\C(=O)O.O=C(O)/C=C\C(=O)O.O=C1NCCN1CCN1CCN([C@@H]2C[C@@H](c3ccccc3F)c3ccccc32)CC1 | > 62 | 13 | -3 | – | -18 | – | 17 | – | – | – | – | – | – | – | – | –
Cl.Cl.OC1=NCCN1CCN1CCN(C2CC(c3ccc(Cl)cc3)c3ccccc32)CC1 (stereo not drawn) | > 80 | 15 | 3 | – | 13 | 37 | 40 | – | – | 800 | – | – | – | – | – | –
CC(C)N1CCN(CCN2CCN(C3CC(c4ccc(F)cc4)c4ccc(F)cc43)CC2)C1=O.Cl.Cl (stereo not drawn) | > 73 | – | – | 28 | – | 4.8 | – | -5 | – | 35 | – | – | – | – | – | 0
CN1CCN(CCN2CCN(C3CC(c4ccc(F)cc4)c4ccc(F)cc43)CC2)C1=O.Cl.Cl (stereo not drawn) | > 78 | – | -11 | 11 | – | 3.3 | 0.078 | – | – | 260 | – | 1300 | 0.01 | 13 | – | –
Cl.Cl.O.O=C1OCCN1CCN1CCN(C2CC(c3ccc(F)cc3)c3ccc(F)cc32)CC1 (stereo not drawn) | – | 19 | -20 | – | -27 | 44 | – | – | – | – | – | 5.2 | – | 4.4 | – | –
Fc1ccc(C2CC(N3CCN(CCN4CCN=C4S)CC3)c3cc(F)ccc32)cc1 (stereo not drawn) | – | – | -10 | – | – | 4.9 | – | – | – | – | – | 370 | 0.01 | – | – | –
Cl.Cl.O=C1OCCN1CCCN1CCN(C2CC(c3ccc(F)cc3)c3ccc(F)cc32)CC1 (stereo not drawn) | – | – | -12 | – | -32 | 22 | – | – | – | 30 | – | – | – | – | – | –
Cl.Cl.O=C1CCCN1CCN1CCN(C2CC(c3ccc(F)cc3)c3ccc(F)cc32)CC1 (stereo not drawn) | – | – | 0 | 36 | – | 12 | – | – | – | 85 | – | – | – | – | – | –
CN1CCN(CCN2CCN([C@@H]3C[C@@H](c4ccc(F)cc4)c4ccc(F)cc43)CC2)C1=O | – | -29 | -32 | 11 | – | 10 | 0.023 | – | – | 38 | – | 550 | 0.0043 | 2.2 | – | –
Cc1nc2sccn2c(=O)c1CCN1CCC(=C(c2ccc(F)cc2)c2ccc(F)cc2)CC1 [RITANSERIN] | > 84 | 16 | 10 | 47 | -95 | – | 1.2 | – | – | – | – | – | – | – | – | –
OCCN1CCN(C2CC(c3ccc(F)cc3)c3ccccc32)CC1 (stereo not drawn) | > 118 | -12 | -27 | 62 | -15 | 64 | 0.46 | – | – | 680 | – | 10 | 0.33 | 3.4 | – | –
O=C1NCCN1CCN1CCN([C@H]2C[C@H](c3ccccc3)c3ccccc32)CC1 | – | 0 | -7 | – | -11 | – | – | – | – | – | – | – | – | – | – | –
Fc1ccc(C2CC(N3CCNCC3)c3ccccc32)cc1 (stereo not drawn) | > 108 | 7 | 10 | 100 | -13 | 30 | 2.5 | – | – | 1900 | – | – | – | – | – | –
CCN1CCN(CCN2CCN(C3CC(c4ccc(F)cc4)c4ccc(F)cc43)CC2)C1=O.Cl.Cl (stereo not drawn) | > 75 | – | 4 | 34 | – | 4.8 | – | – | – | 25 | – | – | – | – | – | –
O=C1NCCN1CCN1CCN(Cc2ccccc2)CC1 | > 139 | – | 15 | > 10000 | – | > 1000 | > 4.3 | – | – | > 1000 | – | – | – | – | – | –
